Experiment [1] deals with T1, mGluR5 (Rattus norvegicus, UniProt P31424). Nature of the experiment: PI hydrolysis in rat hippocampal slices.
In experiment [2] the target is T1, mGluR5. It counts as cell-based.

Where two headings read alike, the source gives them in different places.

As usually defined, the EC50 is the concentration at which the effect is half-maximal. The low end stands for greater potency, the high end for weaker potency.

T1 sequence (P31424 21-1203): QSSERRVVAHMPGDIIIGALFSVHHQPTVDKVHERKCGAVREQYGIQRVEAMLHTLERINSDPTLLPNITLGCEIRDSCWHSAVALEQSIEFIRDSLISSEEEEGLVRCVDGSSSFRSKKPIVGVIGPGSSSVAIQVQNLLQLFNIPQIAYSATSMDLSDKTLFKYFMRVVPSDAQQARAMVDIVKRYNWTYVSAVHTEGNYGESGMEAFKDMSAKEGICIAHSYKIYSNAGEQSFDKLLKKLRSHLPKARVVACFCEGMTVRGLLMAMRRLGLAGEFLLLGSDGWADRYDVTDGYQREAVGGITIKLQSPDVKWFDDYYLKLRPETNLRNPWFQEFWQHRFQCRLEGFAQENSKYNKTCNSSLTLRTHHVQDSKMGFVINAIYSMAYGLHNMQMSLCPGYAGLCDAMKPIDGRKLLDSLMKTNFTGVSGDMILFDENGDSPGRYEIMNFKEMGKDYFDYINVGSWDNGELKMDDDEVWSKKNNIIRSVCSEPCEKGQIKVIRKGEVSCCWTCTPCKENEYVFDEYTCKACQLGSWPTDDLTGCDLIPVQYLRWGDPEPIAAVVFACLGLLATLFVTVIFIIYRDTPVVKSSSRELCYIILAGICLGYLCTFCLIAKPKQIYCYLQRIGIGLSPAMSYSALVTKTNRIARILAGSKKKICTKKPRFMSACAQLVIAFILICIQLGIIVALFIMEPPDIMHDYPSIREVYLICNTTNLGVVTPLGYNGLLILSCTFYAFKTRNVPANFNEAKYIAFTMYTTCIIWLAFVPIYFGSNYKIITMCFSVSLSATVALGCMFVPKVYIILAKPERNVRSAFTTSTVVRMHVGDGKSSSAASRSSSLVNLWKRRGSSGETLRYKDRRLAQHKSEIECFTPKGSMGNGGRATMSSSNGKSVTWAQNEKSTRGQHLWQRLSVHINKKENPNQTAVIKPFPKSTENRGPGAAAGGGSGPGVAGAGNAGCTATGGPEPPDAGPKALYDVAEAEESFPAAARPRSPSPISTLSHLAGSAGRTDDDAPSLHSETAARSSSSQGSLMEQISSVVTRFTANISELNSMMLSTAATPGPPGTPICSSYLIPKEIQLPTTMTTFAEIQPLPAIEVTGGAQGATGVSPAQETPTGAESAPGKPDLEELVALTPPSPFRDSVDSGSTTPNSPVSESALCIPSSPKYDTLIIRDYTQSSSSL

On to `NC(C(=O)O)c1cc(O)cc(O)c1` (centres unmarked) [DHPG], for which, in experiment [1], the EC50 was 8 ± 1.6 µM. The compound `O=C(c1ccc(F)cc1)N1CCC[C@H](c2nc(-c3ccc(F)cc3)no2)C1` [ADX47273] showed an EC50 in experiment [2] of 0.108 ± 0.041 µM.

The values above are taken from article PMC2884290 (Neuropsychopharmacology : official publication of the …, 2009).
